biological target: hA2a/CHO (Homo sapiens (Human), UniProt P29274); test: cAMP inhibition assay in hA2a/CHO cells, 10 μM adenosine; type: cell-based; conditions: read-out: cAMP & FLIPR IC50 (nM) hA2a;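 also: compounds added to cells 30 min ahead of adenosine, then a further 30 min at 37 °C with adenosine before cAMP detection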
Sequence (P29274 whole entry): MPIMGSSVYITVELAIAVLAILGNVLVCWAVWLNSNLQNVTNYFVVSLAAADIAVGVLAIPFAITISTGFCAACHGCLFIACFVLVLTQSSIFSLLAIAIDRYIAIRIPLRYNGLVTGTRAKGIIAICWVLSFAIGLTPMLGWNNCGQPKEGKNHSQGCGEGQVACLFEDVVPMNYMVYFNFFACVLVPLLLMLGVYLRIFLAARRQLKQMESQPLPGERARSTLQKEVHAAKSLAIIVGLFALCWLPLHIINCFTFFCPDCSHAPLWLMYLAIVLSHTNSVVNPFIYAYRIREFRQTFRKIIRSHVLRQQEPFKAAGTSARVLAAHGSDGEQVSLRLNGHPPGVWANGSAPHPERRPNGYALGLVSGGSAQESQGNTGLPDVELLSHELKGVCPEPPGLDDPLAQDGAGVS
Description: hA2a/CHO, hA2b/CHO, hA3/CHO and mA2a/CHO (Genscript) were plated at 5×10^3 cells/well into 384-well polystyrene plates at the day of experiment. Compounds were pre-incubated with cells for 30 min at 37° C., 5% CO2. Then 10 μM adenosine was added to the cells and incubated for 30 min at 37° C., 5% CO2. Detection reagent (CISBIO) was added and the plates were incubated for 60 min at room temperature. The signal was captured by Envision.

| SMILES | IC50 [nM] |
| --- | --- |
| Cc1cnc2ccc(-c3nc(C(=O)NC(C)Cn4cncn4)c(N)nc3-c3ncco3)cn12 (racemic) [Example 306, rac-N-(1-(1H-1,2,4-triazol-1-yl)propan-2-yl)-3-amino-6-(3-methylimidazo [1,2-a]pyridin-6-yl)-5-(oxazol-2-yl) pyrazine-2-carboxamide] | 14 |
| COC1CCOC1CNC(=O)c1nc(-c2ccc3ncc(C)n3c2)c(-c2ncco2)nc1N (single isomer, unassigned) [Example 279, 3-amino-N-((3-methoxytetrahydrofuran-2-yl)methyl)-6-(3-methylimidazo[1,2-a]pyridin-6-yl)-5-(oxazol-2-yl)pyrazine-2-carboxamide] | 1.4 |
| COC1CCOC1CNC(=O)c1nc(-c2ccc3ncc(C)n3c2)c(-c2ncco2)nc1N (single isomer, unassigned) [Example 280, 3-amino-N-((3-methoxytetrahydrofuran-2-yl)methyl)-6-(3-methylimidazo[1,2-a]pyridin-6-yl)-5-(oxazol-2-yl)pyrazine-2-carboxamide] | 0.6 |
| Cc1cnc2ccc(-c3nc(C(=O)NCC4CCOC4)c(N)nc3-c3ccccn3)cn12 (single isomer, unassigned) [Example 304, 3-amino-6-[3-methylimidazo[1,2-a]pyridin-6-yl]-N-[[oxolan-3-yl]methyl]-5-(pyridin-2-yl)pyrazine-2-carboxamide] | 8.2 |
| Cc1cnc2ccc(-c3nc(C(=O)NCC4CCOC4)c(N)nc3-c3ccccn3)cn12 (single isomer, unassigned) [Example 305, 3-amino-6-[3-methylimidazo[1,2-a]pyridin-6-yl]-N-[[oxolan-3-yl]methyl]-5-(pyridin-2-yl)pyrazine-2-carboxamide] | 12 |
| COC1CCCC(NC(=O)c2nc(-c3ccc4ncc(C)n4c3)c(-c3ncco3)nc2N)C1 (single isomer, unassigned; isomer4) [Example 295, 3-amino-N-(3-methoxycyclohexyl)-6-(3-methylimidazo[1,2-a]pyridin-6-yl)-5-(oxazol-2-yl) pyrazine-2-carboxamide (isomer4)] | 13 |
| Cc1cnc2ccc(-c3nc(C(=O)NCC4CCCOC4)c(N)nc3-c3ncco3)cn12 (single isomer, unassigned; isomer 1) [Example 167, 3-amino-6-(3-methylimidazo[1,2-a]pyridin-6-yl)-5-(oxazol-2-yl)-N-((tetrahydro-2H-pyran-3-yl)methyl)pyrazine-2-carboxamide (isomer 1)] | 1.2 |
| Cc1cnc2ccc(-c3nc(C(=O)NCC4OCC4(C)C)c(N)nc3-c3ncco3)cn12 (single isomer, unassigned; isomer 1) [Example 288, 3-amino-N-((3,3-dimethyloxetan-2-yl)methyl)-6-(3-methylimidazo[1,2-a]pyridin-6-yl)-5-(oxazol-2-yl)pyrazine-2-carboxamide (isomer 1)] | 0.6 |
| COC1CCCC(NC(=O)c2nc(-c3ccc4ncc(C)n4c3)c(-c3ncco3)nc2N)C1 (single isomer, unassigned; isomer 1) [Example 292, 3-amino-N-(3-methoxycyclohexyl)-6-(3-methylimidazo[1,2-a]pyridin-6-yl)-5-(oxazol-2-yl)pyrazine-2-carboxamide (isomer 1)] | 0.4 |
| Cc1cnc2ccc(-c3nc(C(=O)NCC4CCCOC4)c(N)nc3-c3ncco3)cn12 (single isomer, unassigned; isomer 2) [Example 168, 3-amino-6-(3-methylimidazo[1,2-a]pyridin-6-yl)-5-(oxazol-2-yl)-N-((tetrahydro-2H-pyran-3-yl)methyl) pyrazine-2-carboxamide (isomer 2)] | 1.1 |
| Cc1cnc2ccc(-c3nc(C(=O)NCC4OCC4(C)C)c(N)nc3-c3ncco3)cn12 (single isomer, unassigned; isomer 2) [Example 289, 3-amino-N-((3,3-dimethyloxetan-2-yl)methyl)-6-(3-methylimidazo[1,2-a]pyridin-6-yl)-5-(oxazol-2-yl)pyrazine-2-carboxamide (isomer 2)] | 1.9 |
| COC1CCCC(NC(=O)c2nc(-c3ccc4ncc(C)n4c3)c(-c3ncco3)nc2N)C1 (single isomer, unassigned; isomer 2) [Example 293, 3-amino-N-(3-methoxycyclohexyl)-6-(3-methylimidazo[1,2-a]pyridin-6-yl)-5-(oxazol-2-yl)pyrazine-2-carboxamide (isomer 2)] | 0.4 |
| COC1CCCC(NC(=O)c2nc(-c3ccc4ncc(C)n4c3)c(-c3ncco3)nc2N)C1 (single isomer, unassigned; isomer 3) [Example 294, 3-amino-N-(3-methoxycyclohexyl)-6-(3-methylimidazo[1,2-a]pyridin-6-yl)-5-(oxazol-2-yl)pyrazine-2-carboxamide (isomer 3)] | 0.2 |
| Cc1cnc2ccc(-c3nc(C(=O)NCc4cccc(N5[C@@H]6CC[C@H]5CN(C)C6)n4)c(N)nc3-c3ncco3)cn12 [Cmpd. 172, 3-amino-N-[(6-[3-methyl-3,8-diazabicyclo[3.2.1]octan-8-yl]pyridin-2-yl)methyl]-6-[3-methylimidazo[1,2-a]pyridin-6-yl]-5-(1,3-oxazol-2-yl)pyrazine-2-carboxamide] | 5.1 |
| Cc1cnc2ccc(-c3nc(C(=O)NCc4cccc(N5CC6(CCN(C)C6)C5)n4)c(N)nc3-c3ncco3)cn12 [Cmpd. 175, 3-amino-N-((6-(6-methyl-2,6-diazaspiro[3.4]octan-2-yl)pyridin-2-yl)methyl)-6-(3-methylimidazo[1,2-a]pyridin-6-yl)-5-(oxazol-2-yl)pyrazine-2-carboxamide] | 0.9 |
| Cc1cnc2ccc(-c3nc(C(=O)NC[C@H]4CCCN4C)c(N)nc3-c3cccc(F)c3)cn12 [Cmpd. 231, (R)-3-amino-5-(3-fluorophenyl)-6-(3-methylimidazo[1,2-a]pyridin-6-yl)-N-((1-methylpyrrolidin-2-yl)methyl)pyrazine-2-carboxamide] | 6.2 |
| Cc1cnc2ccc(-c3nc(CNC(=O)[C@H]4CCCN4C)c(N)nc3-c3ccc(F)c(F)c3)cn12 [Cmpd. 257, (2R)—N-[[3-amino-5-(3,4-difluorophenyl)-6-[3-methylimidazo[1,2-a]pyridin-6-yl]pyrazin-2-yl]methyl]-1-methylpyrrolidine-2-carboxamide] | 1.5 |
| Cc1cnc2ccc(-c3nc(C(=O)NC[C@H]4CCCN4C)c(N)nc3-c3ccccc3)cn12 [Cmpd. 259, 3-amino-6-[3-methylimidazo[1,2-a]pyridin-6-yl]-N-[[(2R)-1-methylpyrrolidin-2-yl]methyl]-5-phenylpyrazine-2-carboxamide] | 3.7 |
| Cc1cnc2ccc(-c3nc(C(=O)NC[C@H]4CCCN4C)c(N)nc3-c3ccc(F)c(F)c3)cn12 [Cmpd. 272, 3-amino-5-(3,4-difluorophenyl)-6-[3-methylimidazo[1,2-a]pyridin-6-yl]-N-[[(2R)-1-methylpyrrolidin-2-yl]methyl]pyrazine-2-carboxamide] | 37 |
| Cc1cnc2ccc(-c3nc(C(=O)NCc4cccc(N5[C@@H]6C[C@H]5CN(C)C6)n4)c(N)nc3-c3ncco3)cn12 [Example 174, 3-amino-N-((6-(3-methyl-3,6-diazabicyclo[3.1.1]heptan-6-yl)pyridin-2-yl)methyl)-6-(3-methylimidazo[1,2-a]pyridin-6-yl)-5-(oxazol-2-yl)pyrazine-2-carboxamide] | 6.9 |
| Cc1cnc2ccc(-c3nc(C(=O)NCC(C)(C)C(=O)N(C)C)c(N)nc3-c3ncco3)cn12 [Example 281, 3-[(3-amino-6-[3-methylimidazo[1,2-a]pyridin-6-yl]-5-(1,3-oxazol-2-yl)pyrazin-2-yl)formamido]-N,N,2,2-tetramethylpropanamide] | 0.3 |
| Cc1cnc2ccc(-c3nc(C(=O)NCc4cccc(N5C[C@H]6C[C@@H]5CN6C)n4)c(N)nc3-c3ncco3)cn12 [Example 282, 3-amino-N-((6-((1R,4R)-5-methyl-2,5-diazabicyclo[2.2.1]heptan-2-yl)pyridin-2-yl)methyl)-6-(3-methylimidazo[1,2-a]pyridin-6-yl)-5-(oxazol-2-yl) pyrazine-2-carboxamide] | 4.5 |
| Cc1cnc2ccc(-c3nc(C(=O)NCc4cccc(N5C[C@@H]6C[C@H]5CN6C)n4)c(N)nc3-c3ncco3)cn12 [Example 283, 3-amino-N-((6-((lS,4S)-5-methyl-2,5-diazabicyclo[2.2.1]heptan-2-yl)pyridin-2-yl)methyl)-6-(3-methylimidazo[1,2-a]pyridin-6-yl)-5-(oxazol-2-yl)pyrazine-2-carboxamide] | 3.4 |
| Cc1cnc2ccc(-c3nc(C(=O)NCc4cccc(N5CC6(CN(C)C6)C5)n4)c(N)nc3-c3ncco3)cn12 [Example 284, 3-amino-N-[(6-[6-methyl-2,6-diazaspiro[3.3]heptan-2-yl]pyridin-2-yl)methyl]-6-[3-methylimidazo[1,2-a]pyridin-6-yl]-5-(1,3-oxazol-2-yl)pyrazine-2-carboxamide] | 0.7 |
| Cc1cnc2ccc(-c3nc(C(=O)NCc4cccc(N5CCN(C)[C@H](C)C5)n4)c(N)nc3-c3ncco3)cn12 [Example 285, 3-amino-N-([6-[(3R)-3,4-dimethylpiperazin-1-yl]pyridin-2-yl]methyl)-6-[3-methylimidazo[1,2-a]pyridin-6-yl]-5-(1,3-oxazol-2-yl)pyrazine-2-carboxamide] | 4.5 |
| Cc1cnc2ccc(-c3nc(C(=O)NCc4cccc(N5CCN(C)[C@@H](C)C5)n4)c(N)nc3-c3ncco3)cn12 [Example 286, (S)-3-amino-N-((6-(3,4-dimethylpiperazin-1-yl)pyridin-2-yl)methyl)-6-(3-methylimidazo[1,2-a]pyridin-6-yl)-5-(oxazol-2-yl)pyrazine-2-carboxamide] | 3.2 |
| Cc1cnc2ccc(-c3nc(C(=O)NCc4cccc(N5CCN(C)C[C@@H]5C)n4)c(N)nc3-c3ncco3)cn12 [Example 287-2, (S)-3-amino-N-((6-(2,4-dimethylpiperazin-1-yl)pyridin-2-yl)methyl)-6-(3-methylimidazo[1,2-a]pyridin-6-yl)-5-(oxazol-2-yl)pyrazine-2-carboxamide] | 4.4 |
| Cc1cnc2ccc(-c3nc(CNC(=O)[C@H]4CCCN4C)c(N)nc3-n3nccn3)cn12 [Example 290, (2R)—N-[(3-amino-6-[3-methylimidazo[1,2-a]pyridin-6-yl]-5-(2H-1,2,3-triazol-2-yl)pyrazin-2-yl)methyl]-1-methylpyrrolidine-2-carboxamide] | 5.8 |
